This passage reports IC50 results from patent publication US9249139B2, “Indolizinone based derivatives as potential phosphodiesterase 3 (PDE3) inhibitors and a process for the preparation thereof” (COUNCIL OF SCIENTIFIC & INDUSTRIAL RESEARCH, priority 2013, dated 2016).

PDE3 enzyme, sequence (Q14432 whole entry): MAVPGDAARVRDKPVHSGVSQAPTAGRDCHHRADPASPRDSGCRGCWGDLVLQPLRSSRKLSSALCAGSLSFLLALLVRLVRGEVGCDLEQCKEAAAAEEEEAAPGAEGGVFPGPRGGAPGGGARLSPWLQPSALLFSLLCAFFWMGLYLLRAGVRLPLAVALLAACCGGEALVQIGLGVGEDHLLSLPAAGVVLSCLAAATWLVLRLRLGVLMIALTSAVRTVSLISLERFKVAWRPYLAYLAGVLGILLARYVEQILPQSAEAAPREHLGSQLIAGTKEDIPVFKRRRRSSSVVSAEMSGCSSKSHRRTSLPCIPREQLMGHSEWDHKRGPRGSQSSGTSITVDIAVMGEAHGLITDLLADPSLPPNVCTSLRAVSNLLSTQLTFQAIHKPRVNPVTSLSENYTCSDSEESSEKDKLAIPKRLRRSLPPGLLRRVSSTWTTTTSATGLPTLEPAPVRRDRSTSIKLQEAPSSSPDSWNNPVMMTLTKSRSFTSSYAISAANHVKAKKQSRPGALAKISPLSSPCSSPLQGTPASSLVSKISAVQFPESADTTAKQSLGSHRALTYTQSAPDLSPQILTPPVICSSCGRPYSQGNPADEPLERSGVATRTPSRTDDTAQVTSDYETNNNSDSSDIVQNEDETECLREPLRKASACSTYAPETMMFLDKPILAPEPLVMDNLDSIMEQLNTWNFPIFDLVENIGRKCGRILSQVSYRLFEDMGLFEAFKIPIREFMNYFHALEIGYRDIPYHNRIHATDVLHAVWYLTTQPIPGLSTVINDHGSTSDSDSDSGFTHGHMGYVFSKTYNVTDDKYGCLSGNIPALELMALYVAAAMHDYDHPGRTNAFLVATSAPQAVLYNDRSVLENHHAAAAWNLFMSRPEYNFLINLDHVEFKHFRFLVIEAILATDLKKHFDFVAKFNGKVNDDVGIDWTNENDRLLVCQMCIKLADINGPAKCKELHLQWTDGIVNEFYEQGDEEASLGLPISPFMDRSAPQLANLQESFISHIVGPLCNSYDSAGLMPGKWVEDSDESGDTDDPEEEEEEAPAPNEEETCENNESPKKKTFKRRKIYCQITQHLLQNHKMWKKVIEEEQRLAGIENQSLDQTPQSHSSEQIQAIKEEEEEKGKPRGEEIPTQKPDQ

The target of this assay is PDE3 enzyme (Homo sapiens (Human), UniProt Q14432). In words: PDE3 inhibition assay, BIOMOL GREEN Quantizyme Assay System. The note with it: PDE3 enzyme from platelets isolated from human blood; cAMP substrate; 1 hour at 37° C.; read at 620 nm. The format is biochemical. The protocol:
PDE3 inhibition assay was performed a BIOMOL GREEN™ Quantizyme Assay System (catalogue No. BML-AK800-0001). The Platelets isolated from human blood were used as a source of PDE3 enzyme. 10 mL blood collected in a vacutainer tube (containing K3 EDTA) and centrifuged at 190×g for 15 min at room temperature. Top layer (platelet rich plasma) collected, centrifuged at 2500g for 5 min at 22° C. (Room temp.) The pellet was washed with 2 ml of 50 mM tris buffer (pH-7.4) containing 1 mM MgCl2 and centrifuged at 2500 g for 5 min. Then 200 μl of assay buffer (from PDE kit, Enzo Life Sciences) was added to the pellet and sonicated at 30 s per ml. Pellet was freeze thawed for three times (−80° C.) in order to rupture the platelet membrane and release the PDE enzyme. Then the cell homogenate was centrifuged at 2500 rpm for 5 min. Supernatant was collected and used as source for PDE3 enzyme. In 96 well plate (Prod. No. BML-KI101), we added supernatant having PDE3 enzyme, PDE3 assay buffer, cAMP substrate, 5′nucleotidase and test or standard compound and incubated for 1 hour at 37° C. The reaction was arrested by the addition 100 μl BIOMOL GREEN reagent incubated in room temp for 20 min. The green color developed was measured at 620 nm
The in vitro Phosphodiestarase (PDE3) inhibitory activity of compounds 1a-p were measured using a BIOMOL GREEN™ Quantizyme Assay System (catalogue No. BML-AK800-0001). The basic principle for this assay is the cleavage of c-AMP or c-GMP into their respective nucleotide by a cyclic nucleotide phosphodiesterase. The nucleotide (AMP or GMP) released is further cleaved into the nucleoside and phosphate by the enzyme 5′-nucleotidase. The extent of phosphate released is directly proportional to the PDE activity. In this screening method, the released phosphate by the enzymatic cleavage is quantified using BIOMOL GREEN reagent in a modified malachite green assay. The resulting green colour with λmax at 620 nm is directly proportional to the released phosphate and then PDE activity.
In the case of `CCOC(=O)c1cc(Cc2ccccc2Cl)c(=O)n2c1CCC2` [Compound 1e, Ethyl 6-(2-chlorobenzyl)-5-oxo-1,2,3,5-tetrahydro-8-indolizinonecarboxylate], the IC50 – broadly, the concentration that gives 50% inhibition – was found to be 129 nM.
With `CCOC(=O)c1cc(Cc2ccc(Br)cc2)c(=O)n2c1CCC2` [Compound 1k, Ethyl 6-(4-bromobenzyl)-5-oxo-1,2,3,5-tetrahydro-8-indolizinonecarboxylate] the figure was 67.3 nM; with `CCOC(=O)c1cc(Cc2ccc(F)cc2)c(=O)n2c1CCC2` [Compound 1d, Ethyl 6-(4-fluorobenzyl)-5-oxo-1,2,3,5-tetrahydro-8-indolizinonecarboxylate], 1600 nM.
For `CCOC(=O)c1cc(Cc2ccc(Cl)cc2Cl)c(=O)n2c1CCC2` [Compound 1h, Ethyl 6-(2,4-dichlorobenzyl)-5-oxo-1,2,3,5-tetrahydro-8-indolizinonecarboxylate], the concentration for half-maximal inhibition (IC50) was 577 nM.
With `CCOC(=O)c1cc(Cc2ccccc2)c(=O)n2c1CCC2` [Compound 1a, Ethyl 6-benzyl-5-oxo-1,2,3,5-tetrahydro-8-indolizinonecarboxylate], the midpoint of inhibition, the IC50, lay at 435 nM. The IC50 values of the last two molecules are within 1.5-fold of each other.
For `CCOC(=O)c1cc(Cc2cccc(F)c2)c(=O)n2c1CCC2` [Compound 1c, Ethyl 6-(3-fluorobenzyl)-5-oxo-1,2,3,5-tetrahydro-8-indolizinonecarboxylate] the value was 13.5 nM; for `CCOC(=O)c1cc(Cc2ccc(Cl)cc2)c(=O)n2c1CCC2` [Compound 1g, Ethyl 6-(4-chlorobenzyl)-5-oxo-1,2,3,5-tetrahydro-8-indolizinonecarboxylate], 108 nM.
For `CCOC(=O)c1cc(Cc2cccc(Br)c2)c(=O)n2c1CCC2` [Compound 1j, Ethyl 6-(3-bromobenzyl)-5-oxo-1,2,3,5-tetrahydro-8-indolizinonecarboxylate] the value was 11.3 nM.
